# Earlier results as cited in patent US10905116B2, “Antimicrobial fabric assemblies” (Higher Dimension Materials, Inc., priority 2016, dated 2021).
# Experiments:
# E. coli = settings: against E. coli
SMILES,"silver ion concentration enough to cause antimicrobial activity (bacterium; released from silver nanoparticles confined in nanoscale cages, conditions of normal water, estimated)",number of silver ions to kill a single bacterium (bacterium; reported),MIC value (Minimum Inhibitory Value) (E. coli)
[Ag+] [silver ion],50 parts per billion,about 100,
[Ag] [silver],,,0.05 to 0.1 µg/mL
